Data published in patent US20060210554A1, “Detection of cholesterol ozonation products” (priority 2003, published 2006).

Tests used:
apoB-100 of human LDL = apoB-100 of human LDL (Homo sapiens, UniProt P04114); assay: Circular dichroism of LDL secondary structure; settings: LDL 100 μg/ml, compound 10 μM, PBS pH 7.4, 37° C., up to 48 h; for random coil of LDL protein after incubation: normal LDL 27±2%; for a helical structure of LDL protein after incubation: normal LDL ~40±2%
Experimental: Circular dichroism. […] Spectra were recorded in the peptidic range (200-260 nm). To increase the signal-to-noise ratio, multiple spectra (three) were averaged for each measurement.

[1] = Aldolization of ketoaldehyde 4a with amino acids (1H NMR); format: physicochemical; settings: L-Lys(OEt).2HCl, 1 equivalent, 100 h, DMSO-d6/D2O
Experimental: Aldolization of ketoaldehyde 4a with amino acids. […] To this solution was added 1 equivalent of either: a) L-proline, b) glycine, c) L-lysine hydrochloride or d) L-lysine ethyl ester dihydrochloride. At time points the samples were analyzed by ^1H NMR.

apoB-100 of human LDL, sequence (P04114 28-4563): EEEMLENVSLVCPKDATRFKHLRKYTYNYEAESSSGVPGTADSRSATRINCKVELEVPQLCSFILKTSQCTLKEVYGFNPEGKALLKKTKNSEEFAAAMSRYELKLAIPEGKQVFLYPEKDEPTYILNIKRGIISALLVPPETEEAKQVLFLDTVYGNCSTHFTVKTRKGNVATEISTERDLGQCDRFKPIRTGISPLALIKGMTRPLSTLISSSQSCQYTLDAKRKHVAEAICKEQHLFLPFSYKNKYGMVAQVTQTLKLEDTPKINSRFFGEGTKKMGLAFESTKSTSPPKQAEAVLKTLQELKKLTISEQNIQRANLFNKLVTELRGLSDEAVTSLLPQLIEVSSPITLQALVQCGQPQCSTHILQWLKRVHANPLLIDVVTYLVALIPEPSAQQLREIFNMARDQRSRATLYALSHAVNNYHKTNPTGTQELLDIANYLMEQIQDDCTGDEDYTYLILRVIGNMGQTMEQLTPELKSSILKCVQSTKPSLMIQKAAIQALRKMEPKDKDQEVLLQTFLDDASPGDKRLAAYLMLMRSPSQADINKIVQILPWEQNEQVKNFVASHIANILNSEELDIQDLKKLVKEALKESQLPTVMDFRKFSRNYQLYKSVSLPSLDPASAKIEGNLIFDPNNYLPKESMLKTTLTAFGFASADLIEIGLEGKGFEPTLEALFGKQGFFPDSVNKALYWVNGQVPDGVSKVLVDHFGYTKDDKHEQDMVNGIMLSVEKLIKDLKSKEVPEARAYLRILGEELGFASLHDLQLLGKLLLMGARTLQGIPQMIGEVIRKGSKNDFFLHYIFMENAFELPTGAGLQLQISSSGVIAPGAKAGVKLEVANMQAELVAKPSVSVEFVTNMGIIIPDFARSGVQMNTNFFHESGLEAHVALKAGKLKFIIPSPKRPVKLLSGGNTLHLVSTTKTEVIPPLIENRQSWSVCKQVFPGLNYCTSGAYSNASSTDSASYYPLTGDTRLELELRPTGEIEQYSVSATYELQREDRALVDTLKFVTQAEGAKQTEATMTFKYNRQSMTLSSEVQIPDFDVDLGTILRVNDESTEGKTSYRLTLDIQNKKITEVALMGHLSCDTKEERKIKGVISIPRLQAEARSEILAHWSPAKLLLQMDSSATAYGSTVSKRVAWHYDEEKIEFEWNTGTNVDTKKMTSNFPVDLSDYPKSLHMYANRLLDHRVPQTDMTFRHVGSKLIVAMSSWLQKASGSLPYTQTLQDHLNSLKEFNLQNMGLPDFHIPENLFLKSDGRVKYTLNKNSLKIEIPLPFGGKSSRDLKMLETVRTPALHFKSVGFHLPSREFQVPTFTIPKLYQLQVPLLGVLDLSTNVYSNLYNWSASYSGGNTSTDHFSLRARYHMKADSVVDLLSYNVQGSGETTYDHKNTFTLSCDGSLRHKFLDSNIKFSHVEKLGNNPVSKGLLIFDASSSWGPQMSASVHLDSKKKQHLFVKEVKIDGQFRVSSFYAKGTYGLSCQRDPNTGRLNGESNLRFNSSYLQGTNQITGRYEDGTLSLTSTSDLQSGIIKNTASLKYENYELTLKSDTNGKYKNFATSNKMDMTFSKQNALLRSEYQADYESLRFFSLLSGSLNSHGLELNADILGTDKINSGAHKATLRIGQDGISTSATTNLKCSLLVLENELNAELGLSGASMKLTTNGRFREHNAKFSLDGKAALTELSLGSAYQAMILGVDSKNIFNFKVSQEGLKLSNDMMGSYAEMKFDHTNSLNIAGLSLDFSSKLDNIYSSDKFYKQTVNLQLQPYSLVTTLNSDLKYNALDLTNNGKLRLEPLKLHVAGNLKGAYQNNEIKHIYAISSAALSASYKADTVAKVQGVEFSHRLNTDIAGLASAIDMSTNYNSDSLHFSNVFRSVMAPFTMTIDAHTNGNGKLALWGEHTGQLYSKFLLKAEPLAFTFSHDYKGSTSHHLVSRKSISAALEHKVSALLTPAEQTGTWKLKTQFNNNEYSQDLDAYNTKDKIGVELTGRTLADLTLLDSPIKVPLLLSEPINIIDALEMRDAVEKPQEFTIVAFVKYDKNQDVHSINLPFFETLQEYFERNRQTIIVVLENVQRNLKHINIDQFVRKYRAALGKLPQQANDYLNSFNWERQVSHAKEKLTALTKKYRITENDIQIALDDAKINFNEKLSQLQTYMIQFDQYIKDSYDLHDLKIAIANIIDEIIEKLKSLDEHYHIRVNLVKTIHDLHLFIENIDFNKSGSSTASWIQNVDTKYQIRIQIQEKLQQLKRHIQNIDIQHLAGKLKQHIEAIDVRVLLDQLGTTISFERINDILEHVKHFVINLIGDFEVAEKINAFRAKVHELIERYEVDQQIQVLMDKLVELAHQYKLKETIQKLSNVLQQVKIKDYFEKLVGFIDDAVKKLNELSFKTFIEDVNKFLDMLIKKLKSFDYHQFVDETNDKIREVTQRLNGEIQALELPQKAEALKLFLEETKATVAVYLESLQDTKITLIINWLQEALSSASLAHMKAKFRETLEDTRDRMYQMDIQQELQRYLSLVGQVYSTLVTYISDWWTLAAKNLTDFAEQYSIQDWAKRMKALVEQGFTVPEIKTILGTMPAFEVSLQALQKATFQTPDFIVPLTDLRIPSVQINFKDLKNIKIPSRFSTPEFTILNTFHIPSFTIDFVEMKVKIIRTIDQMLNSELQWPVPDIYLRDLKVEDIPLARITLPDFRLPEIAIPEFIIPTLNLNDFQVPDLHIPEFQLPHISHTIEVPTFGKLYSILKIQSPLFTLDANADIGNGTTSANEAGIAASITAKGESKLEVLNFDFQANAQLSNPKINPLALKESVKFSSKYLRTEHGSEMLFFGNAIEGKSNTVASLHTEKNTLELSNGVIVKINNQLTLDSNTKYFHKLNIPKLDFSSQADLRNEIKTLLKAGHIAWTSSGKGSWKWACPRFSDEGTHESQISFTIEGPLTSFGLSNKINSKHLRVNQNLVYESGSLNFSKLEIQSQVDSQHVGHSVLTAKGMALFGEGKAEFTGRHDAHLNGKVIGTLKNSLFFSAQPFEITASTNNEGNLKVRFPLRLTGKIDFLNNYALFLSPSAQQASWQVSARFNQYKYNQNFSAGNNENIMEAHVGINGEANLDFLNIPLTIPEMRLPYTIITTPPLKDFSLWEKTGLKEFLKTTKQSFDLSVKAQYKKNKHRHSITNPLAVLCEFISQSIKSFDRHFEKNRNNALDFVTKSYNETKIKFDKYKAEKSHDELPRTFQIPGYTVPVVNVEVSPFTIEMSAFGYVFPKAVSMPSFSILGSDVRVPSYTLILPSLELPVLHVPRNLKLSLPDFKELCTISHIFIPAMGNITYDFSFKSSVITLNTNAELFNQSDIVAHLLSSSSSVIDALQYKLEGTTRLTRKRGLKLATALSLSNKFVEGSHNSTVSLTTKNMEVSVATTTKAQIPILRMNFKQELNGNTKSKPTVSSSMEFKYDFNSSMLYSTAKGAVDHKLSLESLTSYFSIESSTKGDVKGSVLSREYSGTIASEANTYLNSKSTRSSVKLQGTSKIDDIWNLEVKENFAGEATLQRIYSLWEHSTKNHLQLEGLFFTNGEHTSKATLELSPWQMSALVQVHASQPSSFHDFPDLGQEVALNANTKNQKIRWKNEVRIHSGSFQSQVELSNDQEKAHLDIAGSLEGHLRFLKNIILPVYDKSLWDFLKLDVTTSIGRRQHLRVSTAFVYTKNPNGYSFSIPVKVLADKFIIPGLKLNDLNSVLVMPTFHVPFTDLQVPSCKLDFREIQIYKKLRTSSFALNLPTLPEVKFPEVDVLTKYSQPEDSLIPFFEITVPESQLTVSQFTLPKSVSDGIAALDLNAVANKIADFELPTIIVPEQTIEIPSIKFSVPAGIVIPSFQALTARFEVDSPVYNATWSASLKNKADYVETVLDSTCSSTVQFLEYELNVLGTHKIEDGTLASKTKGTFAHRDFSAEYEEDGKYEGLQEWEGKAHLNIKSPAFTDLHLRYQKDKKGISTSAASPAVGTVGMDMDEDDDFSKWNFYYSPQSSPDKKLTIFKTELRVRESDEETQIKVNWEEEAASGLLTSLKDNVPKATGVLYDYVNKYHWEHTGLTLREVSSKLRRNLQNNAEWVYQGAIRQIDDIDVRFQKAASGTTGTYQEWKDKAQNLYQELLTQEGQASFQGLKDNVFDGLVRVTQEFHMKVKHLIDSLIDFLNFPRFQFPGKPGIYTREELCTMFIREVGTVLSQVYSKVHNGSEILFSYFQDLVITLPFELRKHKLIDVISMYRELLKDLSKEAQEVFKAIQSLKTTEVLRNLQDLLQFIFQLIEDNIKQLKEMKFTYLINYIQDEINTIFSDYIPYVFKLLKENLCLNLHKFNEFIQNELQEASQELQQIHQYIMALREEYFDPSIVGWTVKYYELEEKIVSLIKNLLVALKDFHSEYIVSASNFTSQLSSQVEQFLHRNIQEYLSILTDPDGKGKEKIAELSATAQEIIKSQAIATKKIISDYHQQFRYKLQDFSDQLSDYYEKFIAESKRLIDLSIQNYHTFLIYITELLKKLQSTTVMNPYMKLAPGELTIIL

conversion of 4a into 5a [1]	SMILES	random coil of LDL protein after incubation (apoB-100 of human LDL)	a helical structure of LDL protein after incubation (apoB-100 of human LDL)
	CC(C)CCC[C@@H](C)[C@H]1CCC2C3C(CC[C@@]21C)[C@@]1(C)CC[C@H](O)C[C@@]1(O)[C@@H]3C=O (stereo partly drawn) [5a, 3β-Hydroxy-5β-hydroxy-B-norcholestane-6β-carboxaldehyde]	32±4%	~20±2%
62 % conversion	CC(C)CCC[C@@H](C)[C@H]1CCC2C(CC=O)C([C@@]3(C)CC[C@H](O)CC3=O)CC[C@@]21C (some centres unmarked) [4a, 3βHydroxy-5-oxo-5,6-secocholestan-6-al]	~39±2%	~23±5%
